# Results reported in publication PMC3119665, “A New Drug Design Targeting the Adenosinergic System for Huntington's Disease” (PLoS ONE, 2011).
# How the values were obtained:
# Potassium Channel [KATP] = target: T1, Potassium Channel [KATP] (Cricetus cricetus, UniProt Q09427); experiment: Radioligand binding panel (Table S1); parameters: species or system hamster; conditions: 10 μM T1-11, n 2
# T1 construct: purchased MDS Pharma Services Taiwan
# Description: Radoligand binding assays were performed by MDS Pharma Services Taiwan (Taipei, Taiwan) using standard binding protocols. For the binding assay of the A2AR [67], membrane proteins collected from HEK293 cells overexpressing the human A2AR were incubated in reaction buffer [50 mM Tris-HCl (pH 7.4), 10 mM MgCl2, 1 mM EDTA, and 2 U/mL adenosine deaminase] containing ^3H-CGS21680 (50 nM) for 90 min at 25°C. Nonspecific binding was assessed in the presence of 50 µM adenosine- 5′-N-ethylcarboxamide. […] Nonspecific binding was assessed in the presence of 1 µM IB-MECA (Tocris Bioscience, Ellisville, MS, USA).
# [1] = target: T2, Serotonin (5-Hydroxytryptamine) 5-HT3 (Homo sapiens, UniProt P46098); experiment: Radioligand binding panel (Table S1); conditions: 10 μM T1-11, n 2
# T2 construct: purchased MDS Pharma Services Taiwan
# Prostanoid CRTH2 = target: T3, Prostanoid CRTH2 (Homo sapiens, UniProt Q9Y5Y4); experiment: Radioligand binding panel (Table S1); conditions: 10 μM T1-11, n 2
# T3 construct: purchased MDS Pharma Services Taiwan
# Purinergic P 2Y = experiment: Radioligand binding panel (Table S1); parameters: species or system rat; conditions: 10 μM T1-11, n 2
# [2] = target: T4, Serotonin (5-Hydroxytryptamine) 5-HT5A (Homo sapiens, UniProt P47898); experiment: Radioligand binding panel (Table S1); conditions: 10 μM T1-11, n 2
# T4 construct: purchased MDS Pharma Services Taiwan
# Neuropeptide Y Y2 = target: T5, Neuropeptide Y Y2 (Homo sapiens, UniProt P49146); experiment: Radioligand binding panel (Table S1); conditions: 10 μM T1-11, n 2
# T5 construct: purchased MDS Pharma Services Taiwan
# Cannabinoid CB2 = target: T6, Cannabinoid CB2 (Homo sapiens, UniProt P34972); experiment: Radioligand binding panel (Table S1); conditions: 10 μM T1-11, n 2
# T6 construct: purchased MDS Pharma Services Taiwan
# Estrogen ERα = target: T7, Estrogen ERα (Homo sapiens, UniProt P03372); experiment: Radioligand binding panel (Table S1); conditions: 10 μM T1-11, n 2
# T7 construct: purchased MDS Pharma Services Taiwan
# [3] = target: T8, Cholecystokinin CCK. (CCK8) (Homo sapiens, UniProt P32239); experiment: Radioligand binding panel (Table S1); conditions: 10 μM T1-11, n 2
# T8 construct: purchased MDS Pharma Services Taiwan
# Histamine H3 = target: T9, Histamine H3 (Homo sapiens, UniProt Q9Y5N1); experiment: Radioligand binding panel (Table S1); conditions: 10 μM T1-11, n 2
# T9 construct: purchased MDS Pharma Services Taiwan
# [4] = tested on: GABAA, Benzodiazepine, Central, Ro-15-1788; experiment: Radioligand binding panel (Table S1); parameters: species or system rat; conditions: 10 μM T1-11, n 2
# [5] = target: T10, Transporter, Serotonin (5-Hydroxytryptamine) (SERT) (Homo sapiens, UniProt P31645); experiment: Radioligand binding panel (Table S1); conditions: 10 μM T1-11, n 2
# T10 construct: purchased MDS Pharma Services Taiwan
# [6] = tested on: Calcium Channel L-Type, Phenylalkylamin.; experiment: Radioligand binding panel (Table S1); parameters: species or system rat; conditions: 10 μM T1-11, n 2
# Estrogen ERβ = target: T11, Estrogen ERβ (Homo sapiens, UniProt Q92731); experiment: Radioligand binding panel (Table S1); conditions: 10 μM T1-11, n 2
# T11 construct: purchased MDS Pharma Services Taiwan
# A2AR = target: T12, A2AR (Mus musculus, UniProt Q60613); experiment: cAMP level in the brain after intraperitoneal injection; format: in vivo; conditions: single intraperitoneal injection 5 mg/kg body weight, 60 min, wildtype and A2AR knockout mice
# T12 construct: Brain tissues were carefully removed, and homogenized in 1 ml of assay buffer; from tissue; host or cells: brain of C57BL6 mice (in vivo dosing)
# Description: C57BL6 mice (8 weeks old) were intraperitoneally (i.p.) administrated with T1-11 (5 mg/kg body weight, n = 4) or vehicle for 60 min. Brain tissues were carefully removed, and homogenized in 1 ml of assay buffer (25 mM Tris (pH 8), 1 mM EGTA, 1 mM MgCl2, […], […], 10 nM okadaic acid, 1× EDTA free proteinase inhibitor cocktail (Roche), 0.5 mM IBMX, and […]). Trichloroacetic acid (6%, final concentration) was then added to the lysate to precipitate proteins. The cAMP level in the supernatant was analyzed as previously described.
# [7] = target: T13, Transporter, Norepinephrine (NET) (Homo sapiens, UniProt P23975); experiment: Radioligand binding panel (Table S1); conditions: 10 μM T1-11, n 2
# T13 construct: purchased MDS Pharma Services Taiwan
# Progesterone = experiment: Radioligand binding panel (Table S1); parameters: species or system bovine; conditions: 10 μM T1-11, n 2
# Vitamin D3 = target: T14, Vitamin D3 (Homo sapiens, UniProt P11473); experiment: Radioligand binding panel (Table S1); conditions: 10 μM T1-11, n 2
# T14 construct: purchased MDS Pharma Services Taiwan
# Dopamine D3 = target: T15, Dopamine D3 (Homo sapiens, UniProt P35462); experiment: Radioligand binding panel (Table S1); conditions: 10 μM T1-11, n 2
# T15 construct: purchased MDS Pharma Services Taiwan
# Adrenergic α 1D = target: T16, Adrenergic α 1D (Homo sapiens, UniProt P25100); experiment: Radioligand binding panel (Table S1); conditions: 10 μM T1-11, n 2
# T16 construct: purchased MDS Pharma Services Taiwan
# Glucocorticoid = target: T17, Glucocorticoid (Homo sapiens, UniProt P04150); experiment: Radioligand binding panel (Table S1); conditions: 10 μM T1-11, n 2
# T17 construct: purchased MDS Pharma Services Taiwan
# Lipoxygenase 12-LO = target: T18, Lipoxygenase 12-LO (Homo sapiens, UniProt P18054); experiment: Radioligand binding panel (Table S1); conditions: 10 μM T1-11, n 2
# T18 construct: purchased MDS Pharma Services Taiwan
# [8] = target: T19, Benzodiazepine, Peripheral (Rattus norvegicus, UniProt P16257); experiment: Radioligand binding panel (Table S1); conditions: 10 μM T1-11, n 2
# T19 construct: purchased MDS Pharma Services Taiwan
# A1 adenosine receptor = target: T20, A1 adenosine receptor (Homo sapiens, UniProt P30542); experiment: Radioligand binding assay
# T20 construct: MDS Pharma Services Taiwan
# T20 sequence (P30542 1-326): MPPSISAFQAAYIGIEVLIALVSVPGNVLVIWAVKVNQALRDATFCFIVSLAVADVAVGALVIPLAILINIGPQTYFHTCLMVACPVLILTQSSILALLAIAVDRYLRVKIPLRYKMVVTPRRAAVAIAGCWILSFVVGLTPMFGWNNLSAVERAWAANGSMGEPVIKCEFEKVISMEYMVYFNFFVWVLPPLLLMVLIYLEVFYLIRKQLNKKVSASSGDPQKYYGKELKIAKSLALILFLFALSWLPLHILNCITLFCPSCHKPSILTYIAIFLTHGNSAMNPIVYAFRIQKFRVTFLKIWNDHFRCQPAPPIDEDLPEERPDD
# Glutamate, AMPA = experiment: Radioligand binding panel (Table S1); parameters: species or system rat; conditions: 10 μM T1-11, n 2
# [9] = n.s. = not significant, no significant binding at 10 µM
# T12 sequence (Q60613 whole entry): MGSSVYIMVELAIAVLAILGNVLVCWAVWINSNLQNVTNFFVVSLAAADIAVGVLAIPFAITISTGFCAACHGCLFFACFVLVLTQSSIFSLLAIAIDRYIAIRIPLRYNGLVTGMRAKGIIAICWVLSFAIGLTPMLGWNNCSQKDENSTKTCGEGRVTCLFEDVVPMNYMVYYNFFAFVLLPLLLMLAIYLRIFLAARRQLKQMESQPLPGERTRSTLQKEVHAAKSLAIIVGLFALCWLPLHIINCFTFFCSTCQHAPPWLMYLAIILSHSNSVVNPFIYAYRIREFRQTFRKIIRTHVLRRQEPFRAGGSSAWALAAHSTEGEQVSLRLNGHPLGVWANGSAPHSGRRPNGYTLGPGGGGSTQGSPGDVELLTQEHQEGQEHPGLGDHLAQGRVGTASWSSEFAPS
# T4 sequence (P47898 whole entry): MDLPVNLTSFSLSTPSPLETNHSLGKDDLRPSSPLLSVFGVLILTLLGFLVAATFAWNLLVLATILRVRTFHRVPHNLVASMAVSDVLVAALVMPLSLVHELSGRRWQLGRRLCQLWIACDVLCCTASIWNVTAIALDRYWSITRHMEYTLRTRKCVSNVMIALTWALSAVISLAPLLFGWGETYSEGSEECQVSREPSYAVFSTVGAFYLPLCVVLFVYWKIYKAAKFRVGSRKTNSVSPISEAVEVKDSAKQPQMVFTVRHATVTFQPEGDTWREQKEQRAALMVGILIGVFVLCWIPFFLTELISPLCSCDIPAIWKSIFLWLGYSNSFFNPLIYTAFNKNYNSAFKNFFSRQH
# T9 sequence (Q9Y5N1 whole entry): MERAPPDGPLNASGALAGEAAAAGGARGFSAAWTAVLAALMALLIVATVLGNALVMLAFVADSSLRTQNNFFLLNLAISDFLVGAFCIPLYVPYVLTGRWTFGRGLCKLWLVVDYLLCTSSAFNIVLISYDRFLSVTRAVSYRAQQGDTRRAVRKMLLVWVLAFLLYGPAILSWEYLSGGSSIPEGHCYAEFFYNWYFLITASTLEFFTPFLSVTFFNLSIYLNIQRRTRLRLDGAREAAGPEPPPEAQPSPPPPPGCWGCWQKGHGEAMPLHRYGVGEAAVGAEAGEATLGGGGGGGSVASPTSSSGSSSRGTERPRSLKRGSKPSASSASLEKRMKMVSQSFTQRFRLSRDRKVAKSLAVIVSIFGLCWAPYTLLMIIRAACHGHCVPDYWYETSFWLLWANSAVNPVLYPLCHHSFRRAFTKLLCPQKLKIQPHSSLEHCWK
# T8 sequence (P32239 whole entry): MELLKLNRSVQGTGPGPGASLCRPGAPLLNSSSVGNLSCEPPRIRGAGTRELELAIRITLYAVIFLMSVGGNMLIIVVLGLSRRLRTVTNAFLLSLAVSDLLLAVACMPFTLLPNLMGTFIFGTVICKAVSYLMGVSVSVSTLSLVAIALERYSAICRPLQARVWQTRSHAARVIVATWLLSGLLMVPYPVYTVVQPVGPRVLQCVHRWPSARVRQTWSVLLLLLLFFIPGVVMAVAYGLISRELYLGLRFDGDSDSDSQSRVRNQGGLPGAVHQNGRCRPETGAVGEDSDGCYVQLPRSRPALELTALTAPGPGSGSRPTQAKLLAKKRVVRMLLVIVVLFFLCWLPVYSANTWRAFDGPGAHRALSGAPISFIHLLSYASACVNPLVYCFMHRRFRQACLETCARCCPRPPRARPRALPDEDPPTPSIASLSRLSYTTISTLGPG
# T13 sequence (P23975 whole entry): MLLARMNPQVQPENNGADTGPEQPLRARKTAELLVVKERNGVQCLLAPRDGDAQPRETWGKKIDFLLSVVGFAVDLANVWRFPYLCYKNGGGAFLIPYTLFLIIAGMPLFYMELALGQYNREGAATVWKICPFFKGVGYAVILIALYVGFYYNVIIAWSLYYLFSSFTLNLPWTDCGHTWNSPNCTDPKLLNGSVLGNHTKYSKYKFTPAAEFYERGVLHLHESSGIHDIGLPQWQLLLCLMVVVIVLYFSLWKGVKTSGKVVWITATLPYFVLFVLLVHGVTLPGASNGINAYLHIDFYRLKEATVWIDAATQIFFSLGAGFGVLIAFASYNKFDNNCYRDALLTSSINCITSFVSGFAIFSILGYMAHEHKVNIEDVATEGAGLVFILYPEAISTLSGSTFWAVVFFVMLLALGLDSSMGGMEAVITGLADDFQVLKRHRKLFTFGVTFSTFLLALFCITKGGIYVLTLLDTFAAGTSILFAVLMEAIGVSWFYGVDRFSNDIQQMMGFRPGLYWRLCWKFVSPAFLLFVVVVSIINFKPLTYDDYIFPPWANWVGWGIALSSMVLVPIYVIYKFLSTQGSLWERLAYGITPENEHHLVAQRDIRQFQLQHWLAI
# T18 sequence (P18054 whole entry): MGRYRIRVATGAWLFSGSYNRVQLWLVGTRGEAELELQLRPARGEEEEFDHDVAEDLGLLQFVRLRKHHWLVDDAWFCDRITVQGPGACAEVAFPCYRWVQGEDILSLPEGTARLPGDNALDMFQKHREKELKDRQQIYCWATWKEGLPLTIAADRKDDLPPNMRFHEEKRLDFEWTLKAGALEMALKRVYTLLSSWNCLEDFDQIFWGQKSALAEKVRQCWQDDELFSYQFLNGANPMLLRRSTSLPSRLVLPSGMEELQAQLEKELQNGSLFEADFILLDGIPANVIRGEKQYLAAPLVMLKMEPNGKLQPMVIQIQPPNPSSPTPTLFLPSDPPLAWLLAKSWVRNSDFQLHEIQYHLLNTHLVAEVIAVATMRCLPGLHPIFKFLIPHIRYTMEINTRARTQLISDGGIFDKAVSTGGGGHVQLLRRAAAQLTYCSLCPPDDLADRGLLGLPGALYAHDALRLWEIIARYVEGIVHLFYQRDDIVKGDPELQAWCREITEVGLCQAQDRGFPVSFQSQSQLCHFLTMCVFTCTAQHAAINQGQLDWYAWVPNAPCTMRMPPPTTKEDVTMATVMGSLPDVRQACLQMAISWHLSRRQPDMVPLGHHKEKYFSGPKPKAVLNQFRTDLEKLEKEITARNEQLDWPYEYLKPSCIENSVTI
# T17 sequence (P04150 whole entry): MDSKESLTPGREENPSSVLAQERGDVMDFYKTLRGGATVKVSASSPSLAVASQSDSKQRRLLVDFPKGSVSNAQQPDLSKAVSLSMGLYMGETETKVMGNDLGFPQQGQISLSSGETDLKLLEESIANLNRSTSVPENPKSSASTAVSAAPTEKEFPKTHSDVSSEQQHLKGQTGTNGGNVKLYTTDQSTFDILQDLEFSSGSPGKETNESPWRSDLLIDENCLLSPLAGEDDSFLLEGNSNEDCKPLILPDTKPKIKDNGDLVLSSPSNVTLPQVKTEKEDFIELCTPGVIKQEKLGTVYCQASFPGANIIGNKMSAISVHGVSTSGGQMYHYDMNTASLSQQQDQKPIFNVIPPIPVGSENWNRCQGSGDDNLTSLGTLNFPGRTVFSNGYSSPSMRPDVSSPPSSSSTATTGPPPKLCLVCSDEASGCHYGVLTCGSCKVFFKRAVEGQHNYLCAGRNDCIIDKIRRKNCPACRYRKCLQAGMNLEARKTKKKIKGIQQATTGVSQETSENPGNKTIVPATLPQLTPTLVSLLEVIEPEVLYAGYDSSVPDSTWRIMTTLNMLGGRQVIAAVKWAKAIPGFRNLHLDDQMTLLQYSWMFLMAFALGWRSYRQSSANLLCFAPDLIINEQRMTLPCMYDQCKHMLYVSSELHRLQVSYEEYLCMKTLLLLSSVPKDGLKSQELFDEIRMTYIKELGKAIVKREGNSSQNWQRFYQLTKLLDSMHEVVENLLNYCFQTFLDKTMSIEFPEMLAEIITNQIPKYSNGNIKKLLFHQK
# T6 sequence (P34972 whole entry): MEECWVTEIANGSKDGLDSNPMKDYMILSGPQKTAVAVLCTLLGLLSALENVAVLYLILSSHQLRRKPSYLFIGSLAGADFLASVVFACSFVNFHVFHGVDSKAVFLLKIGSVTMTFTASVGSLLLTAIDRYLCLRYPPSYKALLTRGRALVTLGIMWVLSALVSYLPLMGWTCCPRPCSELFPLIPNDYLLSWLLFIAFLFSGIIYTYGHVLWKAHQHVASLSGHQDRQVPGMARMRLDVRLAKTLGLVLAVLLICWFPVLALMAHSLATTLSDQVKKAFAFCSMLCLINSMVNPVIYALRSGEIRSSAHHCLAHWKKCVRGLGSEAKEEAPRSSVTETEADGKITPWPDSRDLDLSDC
# T7 sequence (P03372 whole entry): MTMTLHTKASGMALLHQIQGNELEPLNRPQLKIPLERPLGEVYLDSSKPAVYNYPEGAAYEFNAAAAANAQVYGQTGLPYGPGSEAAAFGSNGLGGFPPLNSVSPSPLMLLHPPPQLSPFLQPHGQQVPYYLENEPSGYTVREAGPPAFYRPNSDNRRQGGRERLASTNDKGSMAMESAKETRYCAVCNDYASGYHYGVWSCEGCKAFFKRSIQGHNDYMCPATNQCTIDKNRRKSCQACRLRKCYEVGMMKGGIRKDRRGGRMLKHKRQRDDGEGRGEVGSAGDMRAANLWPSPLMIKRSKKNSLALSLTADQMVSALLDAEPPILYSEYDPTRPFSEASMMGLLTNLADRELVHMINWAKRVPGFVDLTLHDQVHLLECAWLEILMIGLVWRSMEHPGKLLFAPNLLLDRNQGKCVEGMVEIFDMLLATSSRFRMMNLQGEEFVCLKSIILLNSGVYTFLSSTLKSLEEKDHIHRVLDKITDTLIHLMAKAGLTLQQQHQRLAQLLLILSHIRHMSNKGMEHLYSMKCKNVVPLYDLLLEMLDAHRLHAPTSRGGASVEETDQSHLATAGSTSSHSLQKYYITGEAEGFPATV
structure (smiles),measurement,setting,value
"OC[C@H]1O[C@@H](n2cnc3c(NCc4ccc(O)cc4)ncnc32)[C@H](O)[C@@H]1O [T1-11, N ^6-(4-hydroxybenzyl)adenine riboside]",inhibition at 10 µM,Potassium Channel [KATP],6%
same,inhibition at 10 µM,[1],5%
same,inhibition at 10 µM,Prostanoid CRTH2,0%
same,% Inhibition,Purinergic P 2Y,17%
same,inhibition at 10 µM,[2],-7%
same,inhibition at 10 µM,Neuropeptide Y Y2,4%
same,inhibition at 10 µM,Cannabinoid CB2,-2%
same,inhibition at 10 µM,Estrogen ERα,32%
same,inhibition at 10 µM,[3],-5%
same,inhibition at 10 µM,Histamine H3,4%
same,% Inhibition,[4],1%
same,inhibition at 10 µM,[5],5%
same,% Inhibition,[6],-7%
same,inhibition at 10 µM,Estrogen ERβ,40%
same,cAMP levels in the brain,A2AR,"increased cAMP levels in the brains of wildtype, but not A2AR knockout"
same,inhibition at 10 µM,[7],6%
same,% Inhibition,Progesterone,9%
same,inhibition at 10 µM,Vitamin D3,6%
same,inhibition at 10 µM,Dopamine D3,-7%
same,inhibition at 10 µM,Adrenergic α 1D,8%
same,inhibition at 10 µM,Glucocorticoid,-10%
same,inhibition at 10 µM,Lipoxygenase 12-LO,9%
same,inhibition at 10 µM,[8],3%
same,inhibition at 10 µM,"A1 adenosine receptor; 10 μM T1-11, n 2",23%
same,IC50,A1 adenosine receptor; [9],n.s.
same,Ki,A1 adenosine receptor; [9],n.s.
same,% Inhibition,"Glutamate, AMPA",-9%
